Results taken from patent US10538517B2, “Quinolone derivatives as FGFR inhibitors” (Principia Biopharma, Inc., priority 2015, dated 2020).

test system: SNU-16 cells; test: Inhibition of FGFR2-dependent cell growth (Cell-titer Glo); type: cell-based; conditions: Homo sapiens, 72 hrs incubation, cell viability, read-out: SNU16 IC50 values
Procedure: The cell-based effects of FGFR inhibitors were determined by measuring inhibition of FGFR-dependent cell line growth. The cell lines SNU-16 was used for these assays. […] Percent inhibition of cell growth was calculated as a percentage of untreated cell viability. The percent inhibition was plotted as a function of log compound concentration. The IC50 was then calculated for each compound using Prism software from GraphPad.

Going from `CNc1ncc2cc(-c3cc(OC)cc(OC)c3)c(=O)n(CCc3ccc(NC(=O)C(C#N)=CC(C)(C)N)cc3)c2n1` [Cpd 9 (table 2), 4-amino-2-cyano-N-(4-(2-(6-(3,5-dimethoxyphenyl)-2-(methylamino)-7-oxopyrido[2,3-d]pyrimidin-8(7H)-yl)ethyl)phenyl)-4-methylpent-2-enamide] to `CNc1ncc2cc(-c3cc(OC)cc(OC)c3)c(=O)n(CCc3ccc(NC(=O)C(C#N)=CC(C)(C)C)cc3)c2n1` [Cpd 8 (table 2), 2-cyano-N-(4-(2-(6-(3,5-dimethoxyphenyl)-2-(methylamino)-7-oxopyrido[2,3-d]pyrimidin-8(7H)-yl)ethyl)phenyl)-4,4-dimethylpent-2-enamide], the IC50 falls from 29.7 nM to 18.6 nM (1.6-fold).

same assay, conditions: Homo sapiens, SNU-16, 72 h, 72 hrs incubation, cell viability, read-out: SNU16 IC50 values

`CNc1ncc2cc(-c3cc(OC)cc(OC)c3Cl)c(=O)n(CCc3ccc(NC(=O)C(C#N)=CC(C)(C)N4CCN(C5COC5)CC4)cc3)c2n1` [Cpd 61 (table 2), N-(4-(2-(6-(2-chloro-3,5-dimethoxyphenyl)-2-(methylamino)-7-oxopyrido[2,3-d]pyrimidin-8(7H)-yl)ethyl)phenyl)-2-cyano-4-methyl-4-(4-(oxetan-3-yl)piperazin-1-yl)pent-2-enamide] and `CNc1ncc2cc(-c3cc(OC)cc(OC)c3Cl)c(=O)n(CCc3ccc(NC(=O)C(C#N)=CC(C)(C)N4C[C@@H](C)N(C)[C@@H](C)C4)cc3)c2n1` [Cpd 60 (table 2), N-(4-(2-(6-(2-chloro-3,5-dimethoxyphenyl)-2-(methylamino)-7-oxopyrido[2,3-d]pyrimidin-8(7H)-yl)ethyl)phenyl)-2-cyano-4-methyl-4-((3S,5R)-3,4,5-trimethylpiperazin-1-yl)pent-2-enamide] are within 1.5-fold of each other in IC50: 4.3 nM for the first, 5.6 nM for the second.

Compared with `CNc1ncc2cc(-c3cc(OC)cc(OC)c3Cl)c(=O)n(CCc3cccc(NC(=O)C(C#N)=CC(C)(C)C)n3)c2n1` [Cpd 16 (table 2), N-(6-(2-(6-(2-chloro-3,5-dimethoxyphenyl)-2-(methylamino)-7-oxopyrido[2,3-d]pyrimidin-8(7H)-yl)ethyl)pyridin-2-yl)-2-cyano-4,4-dimethylpent-2-enamide], `CNc1ncc2cc(-c3cc(OC)cc(OC)c3Cl)c(=O)n(CCc3cccc(NC(=O)C(C#N)=CC(C)(C)N)n3)c2n1` [Cpd 17 (table 2), 4-amino-N-(6-(2-(6-(2-chloro-3,5-dimethoxyphenyl)-2-(methylamino)-7-oxopyrido[2,3-d]pyrimidin-8(7H)-yl)ethyl)pyridin-2-yl)-2-cyano-4-methylpent-2-enamide] is 5.4-fold lower in IC50: 43.9 nM for the first, 8.1 nM for the second.

`CNc1ncc2cc(-c3cc(OC)cc(OC)c3Cl)c(=O)n(CCc3cccc(N(C)C(=O)C(C#N)=CC(C)(C)N)c3)c2n1` [Cpd 26 (table 2), 4-amino-N-(3-(2-(6-(2-chloro-3,5-dimethoxyphenyl)-2-(methylamino)-7-oxopyrido[2,3-d]pyrimidin-8(7H)-yl)ethyl)phenyl)-2-cyano-N,4-dimethylpent-2-enamide] and `CNc1ncc2cc(-c3cc(OC)cc(OC)c3Cl)c(=O)n(CCc3cccc(N(C)C(=O)C(C#N)=CC(C)(C)N(C)C)c3)c2n1` [Cpd 39 (table 2), N-(3-(2-(6-(2-chloro-3,5-dimethoxyphenyl)-2-(methylamino)-7-oxopyrido[2,3-d]pyrimidin-8(7H)-yl)ethyl)phenyl)-2-cyano-4-(dimethylamino)-N,4-dimethylpent-2-enamide] are within 1.5-fold of each other in IC50: 56 nM for the first, 40.2 nM for the second.

`CNc1ncc2cc(-c3cc(OC)cc(OC)c3Cl)c(=O)n(CCCN3CCN(C(=O)C(C#N)=CC(C)(C)C)CC3)c2n1` [Cpd 5 (table 1), 2-(4-(3-(6-(2-chloro-3,5-dimethoxyphenyl)-2-(methylamino)-7-oxopyrido[2,3-d]pyrimidin-8(7H)-yl)propyl)piperazine-1-carbonyl)-4,4-dimethylpent-2-enenitrile] and `CNc1ncc2cc(-c3c(Cl)c(OC)cc(OC)c3Cl)c(=O)n(CCN3CCN(C(=O)C(C#N)=CC(C)(C)C)CC3)c2n1` [Cpd 3 (table 1), 2-(4-(2-(6-(2,6-dichloro-3,5-dimethoxyphenyl)-2-(methylamino)-7-oxopyrido[2,3-d]pyrimidin-8(7H)-yl)ethyl)piperazine-1-carbonyl)-4,4-dimethylpent-2-enenitrile] are within 1.5-fold of each other in IC50: 27.2 nM for the first, 34 nM for the second.

Compared with `CNc1ncc2cc(-c3cc(OC)cc(OC)c3Cl)c(=O)n(CCc3csc(NC(=O)C(C#N)=CC(C)(C)C)n3)c2n1` [Cpd 67 (table 2), N-(4-(2-(6-(2-chloro-3,5-dimethoxyphenyl)-2-(methylamino)-7-oxopyrido[2,3-d]pyrimidin-8(7H)-yl)ethyl)thiazol-2-yl)-2-cyano-4,4-dimethylpent-2-enamide], `CNc1ncc2cc(-c3cc(OC)cc(OC)c3Cl)c(=O)n(CCc3cnc(NC(=O)C(C#N)=CC(C)(C)C)cn3)c2n1` [Cpd 71 (table 2), N-(5-(2-(6-(2-chloro-3,5-dimethoxyphenyl)-2-(methylamino)-7-oxopyrido[2,3-d]pyrimidin-8(7H)-yl)ethyl)pyrazin-2-yl)-2-cyano-4,4-dimethylpent-2-enamide] is 12-fold lower in IC50: 936 nM for the first, 79.6 nM for the second. The second is the more potent here.

First: CNc1ncc2cc(-c3cc(OC)cc(OC)c3Cl)c(=O)n(CCN3C[C@@H]4CN(C(=O)C(C#N)=CC(C)(C)C)C[C@@H]4C3)c2n1 [Cpd 6 (table 1), 2-((3aR,6aS)-5-(2-(6-(2-chloro-3,5-dimethoxyphenyl)-2-(methylamino)-7-oxopyrido[2,3-d]pyrimidin-8(7H)-yl)ethyl)octahydropyrrolo[3,4-c]pyrrole-2-carbonyl)-4,4-dimethylpent-2-enenitrile]
Second: CNc1ncc2cc(-c3cc(OC)cc(OC)c3Cl)c(=O)n(CCc3ccnc(NC(=O)C(C#N)=CC(C)(C)N)c3)c2n1 [Cpd 20 (table 2), 4-amino-N-(4-(2-(6-(2-chloro-3,5-dimethoxyphenyl)-2-(methylamino)-7-oxopyrido[2,3-d]pyrimidin-8(7H)-yl)ethyl)pyridin-2-yl)-2-cyano-4-methylpent-2-enamide]
The IC50 of the first is 7.1-fold higher: 649 nM for the first, 91.4 nM for the second. The second is the more potent here.

First: CCOC(C)(C)C=C(C#N)C(=O)Nc1ccc(CCn2c(=O)c(-c3cc(OC)cc(OC)c3Cl)cc3cnc(NC)nc32)cc1 [Cpd 27 (table 2), N-(4-(2-(6-(2-chloro-3,5-dimethoxyphenyl)-2-(methylamino)-7-oxopyrido[2,3-d]pyrimidin-8(7H)-yl)ethyl)phenyl)-2-cyano-4-ethoxy-4-methylpent-2-enamide]
Second: CNc1ncc2cc(-c3cc(OC)cc(OC)c3Cl)c(=O)n(CCc3ccc(NC(=O)C(C#N)=CC(C)(C)N)nc3)c2n1 [Cpd 21 (table 2), 4-amino-N-(5-(2-(6-(2-chloro-3,5-dimethoxyphenyl)-2-(methylamino)-7-oxopyrido[2,3-d]pyrimidin-8(7H)-yl)ethyl)pyridin-2-yl)-2-cyano-4-methylpent-2-enamide]
The IC50 of the first is 7.9-fold lower: 4.2 nM for the first, 33.1 nM for the second.

Compared with `CCN(CC)CCCCNc1ncc2cc(-c3c(Cl)c(OC)cc(OC)c3Cl)c(=O)n(CCc3ccc(NC(=O)C(C#N)=CC(C)C)cc3)c2n1` [Cpd 4 (table 2), 2-cyano-N-(4-(2-(6-(2,6-dichloro-3,5-dimethoxyphenyl)-2-((4-(diethylamino)butyl)amino)-7-oxopyrido[2,3-d]pyrimidin-8(7H)-yl)ethyl)phenyl)-4-methylpent-2-enamide], `CCN(CC)CCCCNc1ncc2cc(-c3c(Cl)c(OC)cc(OC)c3Cl)c(=O)n(Cc3cccc(NC(=O)C(C#N)=CC(C)C)c3)c2n1` [Cpd 5 (table 2), 2-cyano-N-(3-((6-(2,6-dichloro-3,5-dimethoxyphenyl)-2-((4-(diethylamino)butyl)amino)-7-oxopyrido[2,3-d]pyrimidin-8(7H)-yl)methyl)phenyl)-4-methylpent-2-enamide] is 3.5-fold lower in IC50: 5.3 nM for the first, 1.5 nM for the second. The second is the more potent here.

Going from `COc1cc(OC)c(Cl)c(-c2cc3cnc(N)nc3n(CCc3cccc(NC(=O)C(C#N)=CC(C)(C)C)c3)c2=O)c1` [Cpd 50 (table 2), N-(3-(2-(2-amino-6-(2-chloro-3,5-dimethoxyphenyl)-7-oxopyrido[2,3-d]pyrimidin-8(7H)-yl)ethyl)phenyl)-2-cyano-4,4-dimethylpent-2-enamide] to `COc1cc(OC)c(Cl)c(-c2cc3cnc(NCC(C)(C)O)nc3n(CCc3cccc(NC(=O)C(C#N)=CC(C)(C)C)c3)c2=O)c1` [Cpd 52 (table 2), N-(3-(2-(6-(2-chloro-3,5-dimethoxyphenyl)-2-((2-hydroxy-2-methylpropyl)amino)-7-oxopyrido[2,3-d]pyrimidin-8(7H)-yl)ethyl)phenyl)-2-cyano-4,4-dimethylpent-2-enamide], the IC50 rises from 4.6 nM to 15.7 nM (3.4-fold). The first is the more potent here.

First: CNc1ncc2cc(-c3cc(OC)cc(OC)c3Cl)c(=O)n(CCc3cccc(NC(=O)C(C#N)=CC(C)(C)N(C)C4COC4)c3)c2n1 [Cpd 43 (table 2), N-(3-(2-(6-(2-chloro-3,5-dimethoxyphenyl)-2-(methylamino)-7-oxopyrido[2,3-d]pyrimidin-8(7H)-yl)ethyl)phenyl)-2-cyano-4-methyl-4-(methyl(oxetan-3-yl)amino)pent-2-enamide]
Second: CNc1ncc2cc(-c3cc(OC)cc(OC)c3Cl)c(=O)n(CCc3cccc(NC(=O)C(C#N)=CC(C)(C)N4CCC(O)CC4)c3)c2n1 [Cpd 53 (table 2), N-(3-(2-(6-(2-chloro-3,5-dimethoxyphenyl)-2-(methylamino)-7-oxopyrido[2,3-d]pyrimidin-8(7H)-yl)ethyl)phenyl)-2-cyano-4-(4-hydroxypiperidin-1-yl)-4-methylpent-2-enamide]
The IC50 of the first is 2.1-fold lower: 2.4 nM for the first, 5.1 nM for the second.

First: COc1cc(OC)c(Cl)c(-c2cc3cnc(NCCN4CCOCC4)nc3n(CCc3ccc(NC(=O)C(C#N)=CC(C)(C)C)cc3)c2=O)c1 [Cpd 68 (table 2), N-(4-(2-(6-(2-chloro-3,5-dimethoxyphenyl)-2-((2-morpholinoethyl)amino)-7-oxopyrido[2,3-d]pyrimidin-8(7H)-yl)ethyl)phenyl)-2-cyano-4,4-dimethylpent-2-enamide]
Second: CNc1ncc2cc(-c3cc(OC)cc(OC)c3)c(=O)n(CCc3cccc(NC(=O)C(C#N)=CC(C)(C)N)c3)c2n1 [Cpd 11 (table 2), 4-amino-2-cyano-N-(3-(2-(6-(3,5-dimethoxyphenyl)-2-(methylamino)-7-oxopyrido[2,3-d]pyrimidin-8(7H)-yl)ethyl)phenyl)-4-methylpent-2-enamide]
The IC50 of the first is 2.1-fold lower: 35.5 nM for the first, 73.4 nM for the second. The first is the more potent here.
